We go through three molecules from patent US11643438B2, “Antimicrobial peptides and methods of use” (priority 2018, dated 2023).

“Also recorded” adds a separate entry of the source. *1 amine or outer side, *2 acyl side, *3 side chain or, on linkers, in order; H or OH if unused. Where a SMILES comes first, the peptide text is derived from it. [ ]: non-standard residue; d: D form. X2 = CC[C@H](C)C[C@H](C)C[C@H](C)C[C@H](N[*:1])C(=O)[*:2]; X1 = CC[C@@H](C)[C@@H](O[*:1])C(=O)[*:2]; NMeVal(β-OH) = CN[C@H](C(=O)O)C(C)(C)O; aIle = CC[C@@H](C)[C@H](N)C(=O)O; NMeV = CN[C@H](C(=O)O)C(C)C; Sar = CNCC(=O)O

The assay deals with C. albicans SC5314 Flu^R. The experiment in a line: Ex vivo model of fungal keratitis (porcine cornea). Set-up: species or system Candida albicans.
With `CC[C@H](C)C[C@H](C)C[C@H](C)C[C@@H]1NC(=O)[C@H](C(C)C)N(C)C(=O)[C@@H]([C@H](C)CC)OC(=O)[C@H](C(C)(C)O)N(C)C(=O)[C@H](CC(C)C)NC(=O)[C@H](C(C)C)N(C)C(=O)[C@H]([C@H](C)CC)NC(=O)[C@@H]2CCCN2C(=O)CN(C)C1=O` [Compound 1, persephacin] (cyclo(L[NMeVal(β-OH)][X1][NMeV][X2][Sar]P[aIle][NMeV])), the “antifungal activity (fungal growth/infection), in words” value was “inhibited the growth; also recorded: eliminated the fungus”.
As for `OC(Cn1cncn1)(Cn1cncn1)c1ccc(F)cc1F` [Fluconazole, fluconazole], the entry is “did not inhibit the growth; also recorded: unable to inhibit the fungus”.
The value for `C[C@@H]1C/C=C/C=C/C=C/C=C/[C@H](O[C@@H]2O[C@H](C)[C@@H](O)[C@H](N)[C@@H]2O)C[C@@H]2O[C@](O)(C[C@@H](O)C[C@H]3O[C@@H]3/C=C/C(=O)O1)C[C@H](O)[C@H]2C(=O)O` [Natamycin, natamycin] was “inhibited the growth; also recorded: reduced the fungal burden”.
